In brackets after ≈: the same amount, converted by molar mass. Peptide text beside a SMILES is read from it. * marks the point of attachment. Orn(α-tetramethylguanidino) = CN(C)C(=N[C@@H](CCCN)C(=O)*)N(C)C
Legend:
[1] = tested on: E. coli BW25113; assay type: cell-based, Escherichia coli; details: for MIC, BW: BW25113, 2 h
Method: (§1) The minimal inhibitory concentrations (MIC) were determined at least twice in triplicate using a liquid broth microdilution assay in sterile 96-well plates and a total volume of 100 μL per well. Aqueous peptide solutions were serially 2-fold diluted in 25% MHBII or 33% TSB medium in a volume of 50 µL. An overnight culture was diluted in 25% MHBII or 33% TSB medium to 1.5 × 10^7 CFU/mL, and an aliquot of 50 μL was added to each well. The final cell count in each well was 7.5 × 10^6 CFU/mL. […] The turbidity of each well was measured at a wavelength of 600 nm. The MIC was defined as the lowest peptide concentration where the turbidity was identical to medium only.

[2] = tested on: E. coli BL21 (DE3) RIL ribosome extract; details: values published for E. coli BL21 (DE3) RIL ribosome extract; read-out: Ki, cf-Api137; cited from earlier work
[3] = tested on: 70S ribosome extract of E. coli Rosetta DE3 pLysS; assay: Fluorescence polarization, Kd of cf-labeled peptides; assay type: binding, Escherichia coli; details: determined for the cf-labeled peptide, 28 °C, 90 min, 95% confidence interval in brackets, triplicate on at least two days, read-out: Kd, Ros
Method: (§2) E. coli BW25113 and E. coli Rosetta pLysS were cultivated in LB medium and harvested at an OD600 of ~4 by centrifugation (5000× g, 30 min, 4 °C). The cell pellets were washed by resuspension in ribosome preparation buffer (20 mmol/L Hepes-KOH, 6 mmol/L MgCl2, 30 mmol/L NH4Cl, pH 7.6, 4°C) and subsequent centrifugation (5000× g, 30 min, 4 °C). Cell pellets were suspended in ribosome preparation buffer ([…]) containing freshly added 2-mercapotethanol (4 mmol/L). Lysozyme was added to the resuspended cells and incubated on ice for 30 min. The cell suspension was disrupted six times using a FastPrep-24^TM 5G instrument (MP Biomedicals, Solon, OH, USA) with BigPrep 50 mL setting (40 s, 4.0 m/s), incubated with DNase I (5 mL/L) on ice for one hour and centrifuged (16,000× g, 30 min, 4 °C). The cell debris was removed from the supernatant by centrifugation (32,000× g, 60 min, 4 °C), and the supernatant was centrifuged again (165,000× g, 17 h, 4 °C). The pellet was resuspended in ribosome preparation buffer (0.1 mL per g cell pellet) to obtain the 70S ribosome extract and stored at −80 °C. The ribosome concentration was estimated by recording the absorbance at 260 nm (1 AU for a ribosome concentration of 28 nmol/L). The molecular weight of the 70S E. coli ribosome was assumed to be 2.3 MDa.
Kd was determined using a ribosome extract and cf-labeled peptides in ribosome preparation buffer. Briefly, black 384-well plates (flat bottom, Greiner Bio-One GmbH) were blocked with casein (0.5%, w/v) in phosphate buffer containing 0.05% (v/v) Tween 20 at 4 °C overnight and washed three times with phosphate buffer. A 2-fold dilution series of the ribosome extract (20 μL per well) in ribosome preparation buffer was prepared in a black 384-well plate (23 dilution steps). The cf-labeled peptide was dissolved in ribosome preparation buffer (20 μL, 40 nmol/L), added to each well, and incubated at 28 ± 1 °C. After 90 min, the fluorescence polarization was measured on a PARADIGMTM microplate reader (Beckman Coulter, Salzburg, Austria) in the top read position (λexc = 485 nm, λem = 535 nm) in triplicate on at least two different days. Data were fitted to a nonlinear, dose–response logistical transition equation [y= y0 + a/(1 + (x/x0)b)] using the Levenberg–Marquardt algorithm, with dissociation constants (Kd) represented by the x0 coefficients (GraphPad Prism for Windows v. 5.02, San Diego, CA, USA).

[4] = tested on: E. coli BL21 (DE3); assay type: cell-based, Escherichia coli; details: BL21, 2 h
Method: as §1

[5] = target: BW25113 ribosome extract, ribosomal binding site of Onc112; assay: Fluorescence polarization competition against cf-Onc112 (Ki); set-up: species or system Escherichia coli; details: unlabeled PrAMP against cf-labeled Onc112, calculated from IC50, 95% confidence interval in brackets
Method: as §2
Ki was determined for ribosome extracts using cf-labeled and unlabeled peptides in ribosome preparation buffer. Black 384-well plates were prepared as described above. Unlabeled peptides or antibiotics (20 µL, 656 µmol/L) were added and 2-fold serially diluted in 23 wells in ribosome preparation buffer. A ribosome solution was prepared by adjusting the ribosome concentration to ~90% of the upper Kd plateau obtained for the cf-labeled peptide to be studied and added to each well (10 µL). […] The fluorescence polarization was measured on a PARADIGMTM microplate reader in the top read position (λexc = 485 nm, λem = 535 nm) in triplicate on at least two different days. […] Inhibition constants, Ki, were calculated as described by Mathias and Jung.

| SMILES | MIC, BW [1] [µg/mL] | less active against BW25113 than against Rosetta DE3 pLysS (fold, from MIC) ([1]; ratio of MIC values, 25% MHBII) | Ki [2] [µM] | Kd [3] [µM] | MIC, 25% MHBII [4] [µg/mL] | MIC, 33% TSB [4] [µg/mL] | Ki [5] [µM] | MIC in the parent E. coli BL21 strain [4] [µg/mL] |
| --- | --- | --- | --- | --- | --- | --- | --- | --- |
| CC[C@H](C)[C@H](NC(=O)[C@H](Cc1ccc(O)cc1)NC(=O)[C@@H](NC(=O)[C@@H]1CCCN1C(=O)[C@H](CCCNC(=N)N)NC(=O)[C@H](CC(N)=O)NC(=O)[C@H](CC(N)=O)NC(=O)[C@H](CCCN)N=C(N(C)C)N(C)C)C(C)C)C(=O)N1CCC[C@H]1C(=O)N[C@@H](CCCNC(=N)N)C(=O)N1CCC[C@H]1C(=O)N[C@@H](CCCNC(=N)N)C(=O)N1CCC[C@H]1C(=O)N1CCC[C@H]1C(=O)N[C@@H](Cc1c[nH]cn1)C(=O)N1CCC[C@H]1C(=O)N[C@@H](CCCNC(=N)N)C(=O)N[C@@H](CC(C)C)C(N)=O [Api88] ({Orn(α-tetramethylguanidino)}-NNRPVYIPRPRPPHPRL-NH2) | 2 (≈ 0.873 µM) | twofold | 0.18 |  |  |  |  |  |
| CC[C@H](C)[C@H](NC(=O)[C@H](Cc1ccc(O)cc1)NC(=O)[C@@H](NC(=O)[C@@H]1CCCN1C(=O)[C@H](CCCNC(=N)N)NC(=O)[C@H](CC(N)=O)NC(=O)[C@H](CC(N)=O)NC(=O)[C@H](CCCN)N=C(N(C)C)N(C)C)C(C)C)C(=O)N1CCC[C@H]1C(=O)N[C@@H](CCCNC(=N)N)C(=O)N1CCC[C@H]1C(=O)N[C@@H](CCCNC(=N)N)C(=O)N1CCC[C@H]1C(=O)N1CCC[C@H]1C(=O)N[C@@H](Cc1c[nH]cn1)C(=O)N1CCC[C@H]1C(=O)N[C@@H](CCCNC(=N)N)C(=O)N[C@@H](CC(C)C)C(=O)O [Api137] ({Orn(α-tetramethylguanidino)}-NNRPVYIPRPRPPHPRL-OH) | 2 (≈ 0.873 µM) |  |  | 0.198 | 4 (≈ 1.75 µM) | 2 (≈ 0.873 µM) | 0.219 |  |
| CC[C@H](C)[C@H](NC(=O)[C@@H]1CCCN1C(=O)[C@H](CCCNC(=N)N)NC(=O)[C@H](CC(N)=O)NC(=O)[C@H](CC(N)=O)NC(=O)CN)C(=O)N[C@@H](Cc1ccc(O)cc1)C(=O)N[C@H](C(=O)N1CCC[C@H]1C(=O)N[C@@H](CCCNC(=N)N)C(=O)N1CCC[C@H]1C(=O)N[C@@H](CCCNC(=N)N)C(=O)N1CCC[C@H]1C(=O)N1CCC[C@H]1C(=O)N[C@@H](Cc1c[nH]cn1)C(=O)N1CCC[C@H]1C(=O)N[C@@H](CCCNC(=N)N)C(=O)N1CCC[C@H]1C(=O)N[C@H](C(=O)N[C@@H](CCCNC(=N)N)C(=O)N[C@H](C(=O)O)C(C)C)[C@@H](C)CC)[C@@H](C)CC [Api805] (H-GNNRPIYIPRPRPPHPRPIRV-OH; N-terminus assumed) |  |  |  | 0.515 | 4 (≈ 1.6 µM) | 2 (≈ 0.799 µM) | 0.489 | 2 to 4 |
